Article PMC10120512, “Benzenesulfonamide derivatives as Vibrio cholerae carbonic anhydrases inhibitors: a computational-aided insight in the structural rigidity-activity relationships” (Journal of Enzyme Inhibition and Medicinal Chemistry, 2023)
pKi: −log10 of the molar value.

Experiments:
VchβCA = VchβCA (Vibrio cholerae, UniProt A0A086SLX8); assay: biochemical
VchαCA [1] = biological target: VchαCA (Vibrio cholerae, UniProt Q9KMP6); assay: biochemical; type: biochemical
VchαCA [2] = assay: biochemical; type: biochemical; conditions: for SI [ KI hCA I/KI VchαCA ]: selectivity index hCA I over VchαCA; for SI [ KI hCA II/KI VchαCA ]: selectivity index hCA II over VchαCA
VchγCA = VchγCA (Vibrio cholerae, UniProt Q9KVT1); assay: biochemical
[3] = system: clinical isolates of V. cholerae (SI-Vc22, SI-Vc71, SI-Vc912); assay: Direct antibacterial activity, agar diffusion method; type: cell-based; conditions: for inhibition zone diameter: all the isolates, data not shown; for growth inhibition against at least one of the clinical isolates: 2 μL spot, 37 °C, 24 h; as to all read-outs here: test concentration or dose not given here

Sequence of VchβCA (A0A086SLX8 entry or part of it): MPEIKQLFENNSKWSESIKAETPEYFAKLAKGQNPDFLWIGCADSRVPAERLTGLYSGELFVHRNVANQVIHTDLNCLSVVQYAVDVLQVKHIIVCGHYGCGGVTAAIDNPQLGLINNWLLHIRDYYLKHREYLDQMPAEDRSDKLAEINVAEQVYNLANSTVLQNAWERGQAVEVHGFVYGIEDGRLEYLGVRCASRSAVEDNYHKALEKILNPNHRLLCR
Sequence of VchγCA (Q9KVT1 1-184): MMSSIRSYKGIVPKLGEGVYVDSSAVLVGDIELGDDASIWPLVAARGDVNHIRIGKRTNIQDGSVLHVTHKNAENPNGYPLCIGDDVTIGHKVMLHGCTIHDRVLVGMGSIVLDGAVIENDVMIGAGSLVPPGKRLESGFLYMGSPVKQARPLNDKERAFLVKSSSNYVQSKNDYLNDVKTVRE
Sequence of VchαCA (Vibrio cholerae, UniProt Q9KMP6) (Q9KMP6 entry or part of it): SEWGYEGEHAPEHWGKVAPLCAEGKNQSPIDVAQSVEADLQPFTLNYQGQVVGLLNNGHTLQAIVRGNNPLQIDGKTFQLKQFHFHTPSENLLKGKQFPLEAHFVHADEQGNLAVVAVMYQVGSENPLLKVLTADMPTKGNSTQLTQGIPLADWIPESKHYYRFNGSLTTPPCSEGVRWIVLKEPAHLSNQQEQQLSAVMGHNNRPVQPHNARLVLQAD

| SMILES | pKi (VchβCA) | pKi (VchαCA [1]) | SI [ KI hCA I/KI VchαCA ] (VchαCA [2]) | SI [ KI hCA II/KI VchαCA ] (VchαCA [2]) | pKi (VchγCA) | inhibition zone diameter [3] | growth inhibition against at least one of the clinical isolates [3] |
| --- | --- | --- | --- | --- | --- | --- | --- |
| NS(=O)(=O)c1ccc(NCCNc2ccccc2)cc1 [1a] | 4.74 | 7.11 | 0.3 | 0.1 |  |  |  |
| NS(=O)(=O)c1ccc(NC(=O)CNc2ccccc2)cc1 [1b] | 4.75 | 7.28 | 1.2 | 0.1 | 4.31 |  |  |
| NS(=O)(=O)c1ccc(N2CCN(c3ccccc3)C2=O)cc1 [1c] | 3.87 | 8.15 | 7.7 | 0.6 | 5.30 |  |  |
| Cc1ccc(NCCNc2ccc(S(N)(=O)=O)cc2)cc1 [2a] | 4.77 | 7.37 | 0.2 | 0.1 | 4.40 |  |  |
| Cc1ccc(NCC(=O)Nc2ccc(S(N)(=O)=O)cc2)cc1 [2b] | 4.01 | 7.37 | 0.2 | 1.9 | 4.08 |  |  |
| Cc1ccc(N2CCN(c3ccc(S(N)(=O)=O)cc3)C2=O)cc1 [2c] | 4.08 | 7.57 | 0.60 | 0.14 | 5.46 |  |  |
| NS(=O)(=O)c1ccc(NCCNc2ccc(Cl)cc2)cc1 [3a] | 4.27 | 7.56 | 1.4 | 1.7 |  |  |  |
| NS(=O)(=O)c1ccc(N2CCN(c3ccc(Cl)cc3)C2=O)cc1 [3c] | 3.97 | 7.33 | 4.1 | 1.0 | 4.30 |  |  |
| NS(=O)(=O)c1ccc(NCCNc2ccc(I)cc2)cc1 [4a] | 3.87 | 7.19 | 12.1 | 9.9 |  |  |  |
| NS(=O)(=O)c1ccc(NC(=O)CNc2ccc(I)cc2)cc1 [4b] | 3.80 | 7.64 |  |  | 4.14 |  |  |
| NS(=O)(=O)c1ccc(NCCNc2ccccc2Br)cc1 [5a] | 4.05 | 7.19 | 14.7 | 14.2 |  |  |  |
| NS(=O)(=O)c1ccc(NC(=O)CNc2ccccc2Br)cc1 [5b] | 4.32 | 7.21 |  |  | 4.06 |  |  |
| NS(=O)(=O)c1ccc(N2CCN(c3ccccc3Br)C2=O)cc1 [5c] |  | 7.33 | 0.1 | 0.1 | 4.14 |  |  |
| NS(=O)(=O)c1ccc(NCCNc2ccccc2F)cc1 [6a] | 4.00 | 7.44 | 2.1 | 0.2 | 4.13 |  |  |
| NS(=O)(=O)c1ccc(NC(=O)CNc2ccccc2F)cc1 [6b] | 4.29 | 7.10 | 0.2 | 0.1 | 4.03 |  |  |
| Cc1cccc(NCCNc2ccc(S(N)(=O)=O)cc2)n1 [7a] | 4.72 | 7.43 | 2.4 | 0.9 | 4.16 |  |  |
| Cc1cccc(NCC(=O)Nc2ccc(S(N)(=O)=O)cc2)n1 [7b] | 4.14 | 7.77 | 0.9 | 0.3 | 4.22 |  |  |
| Cc1cccc(N2CCN(c3ccc(S(N)(=O)=O)cc3)C2=O)n1 [7c] | 3.91 | 7.96 | 5.0 | 0.7 | 4.10 |  |  |
| NS(=O)(=O)c1ccc(NCCNCc2ccccc2)cc1 [8a] | 4.91 | 7.64 | 7.4 | 1.4 | 4.28 |  |  |
| NS(=O)(=O)c1ccc(NC(=O)CNCc2ccccc2)cc1 [8b] | 4.27 | 7.21 |  |  |  |  |  |

| SMILES | pKi (VchβCA) | pKi (VchαCA [1]) | SI [ KI hCA I/KI VchαCA ] (VchαCA [2]) | SI [ KI hCA II/KI VchαCA ] (VchαCA [2]) | pKi (VchγCA) | inhibition zone diameter [3] | growth inhibition against at least one of the clinical isolates [3] |
| --- | --- | --- | --- | --- | --- | --- | --- |
| NS(=O)(=O)c1ccc(N2CCN(Cc3ccccc3)C2=O)cc1 [8c] | 3.90 | 8.59 | 3.1 | 1.2 | 5.09 |  |  |
| CCCCNCCNc1ccc(S(N)(=O)=O)cc1 [9a] | 3.94 | 7.10 | 6.8 | 1.0 |  | 3–5 mm |  |
| CCCCNCC(=O)Nc1ccc(S(N)(=O)=O)cc1 [9b] | 3.85 | 7.10 |  |  |  |  | moderate growth inhibition |
| CC(C)NCCNc1ccc(S(N)(=O)=O)cc1 [10a] | 4.90 | 8.12 | 119.5 | 45.0 | 4.03 |  |  |
| CC(C)NCC(=O)Nc1ccc(S(N)(=O)=O)cc1 [10b] | 5.40 | 7.44 | 2.5 | 0.7 | 4.23 |  |  |
| CC(C)N1CCN(c2ccc(S(N)(=O)=O)cc2)C1=O [10c] | 3.95 | 8.01 | 0.9 | 0.3 | 4.19 |  |  |
| NS(=O)(=O)c1cccc(NCCNc2ccccc2)c1 [11a] | 4.81 | 7.20 | 0.1 | 0.1 |  | 3–5 mm | moderate growth inhibition |
| NS(=O)(=O)c1cccc(N2CCN(c3ccccc3)C2=O)c1 [11c] | 4.00 | 7.30 | 1.2 | 0.6 | 5.19 |  |  |
| Cc1ccc(NCCNc2cccc(S(N)(=O)=O)c2)cc1 [12a] | 3.76 | 7.36 |  |  | 4.10 |  |  |
| Cc1ccc(NCC(=O)Nc2cccc(S(N)(=O)=O)c2)cc1 [12b] | 3.92 | 7.14 | 1.2 | 0.1 | 5.02 |  |  |
| Cc1ccc(N2CCN(c3cccc(S(N)(=O)=O)c3)C2=O)cc1 [12c] |  | 7.96 |  |  | 4.12 |  |  |
| NS(=O)(=O)c1cccc(NC(=O)CNc2ccc(Cl)cc2)c1 [13b] | 4.15 | 7.12 | 3.6 | 0.4 |  |  |  |
| NS(=O)(=O)c1cccc(N2CCN(c3ccc(Cl)cc3)C2=O)c1 [13c] | 3.91 | 8.40 | 7.6 | 21.0 | 4.13 |  |  |
| NS(=O)(=O)c1cccc(NCCNc2ccccc2Br)c1 [14a] | 4.01 | 7.20 | 0.1 | 0.1 |  |  |  |
| NS(=O)(=O)c1cccc(NC(=O)CNc2ccccc2Br)c1 [14b] | 4.80 | 7.14 | 0.3 |  | 4.14 |  |  |
| NS(=O)(=O)c1cccc(N2CCN(c3ccccc3Br)C2=O)c1 [14c] | 3.88 | 8.00 | 0.8 | 5.4 | 4.09 |  |  |
| CCCCNCCNc1cccc(S(N)(=O)=O)c1 [15a] | 4.25 | 7.10 | 1.9 | 0.5 | 4.16 |  |  |
| CCCCNCC(=O)Nc1cccc(S(N)(=O)=O)c1 [15b] | 3.93 | 7.18 | 1.3 | 0.6 | 4.13 |  |  |
| CCCCN1CCN(c2cccc(S(N)(=O)=O)c2)C1=O [15c] | 3.91 | 7.33 | 0.8 | 0.2 | 5.10 |  |  |
